Source: US5140014A (Abbott Laboratories, priority 1989, dated 1992)
≈ marks a conversion by molar mass, not a printed value. Like-named read-outs stand apart in the source and are kept apart here.

Columns and labels:
Assay in all cases: in vitro antibacterial activity, agar dilution method (MIC)
Type in all cases: cell-based
[1] = system: Acinetobacter Sp; conditions: Acinetobacter, strain CMX 669; BHI agar, 20-24 hours; read-out: MIC
Method: (§1) The test medium was Brain Heart Infusion (BHI) agar. The antibacterial agent was dissolved at a concentration of 2,000 ug/mL. Test plates were then prepared, usually 12 two-fold dilutions. After adding the sample to the plates, 10 mL of cooled BHI agar medium was added to each plate. The organisms were grown overnight in BHI broth (Difco) in a 35°-37° C. incubator.
(§2) On the day of testing, the bacterial suspensions were diluted 1:100 in sterile distilled water, except for a few slow-growing organisms (usually Micrococcus and Streptococcus) which were diluted 1:10. The plate was then inoculated with approximately 10^4 organisms. This was incubated in a 35°-37° C. incubator for 20-24 hours. Thereafter, the plates were read to determine the minimum inhibitory concentration (MIC) defined as the lowest concentration of drug yielding no growth on the plate, a slight haze, or sparsely isolated colonies on the inoculum spot as compared to the growth control.

[2] = system: Enterobacter Aerogenes; conditions: Klebsiella aerogenes, ATCC13048, strain ATCC 13048; BHI agar, 20-24 hours; read-out: MIC
Method: as §1, §2

[3] = system: Enterococcus Faecium; conditions: Enterococcus faecium, ATCC8043, strain ATCC 8043; BHI agar, 20-24 hours; read-out: MIC
Method: as §1, §2

[4] = system: Haemophilus Influenzae; conditions: Haemophilus influenzae, BHI agar, 20-24 hours
Method: as §1, §2

[5] = system: Klebsiella Pneumoniae; conditions: Klebsiella pneumoniae, ATCC8045, strain ATCC 8045; BHI agar, 20-24 hours; read-out: MIC
Method: as §1, §2

[6] = system: Micrococcus Luteus; conditions: Micrococcus luteus
Method: as §1, §2

[7] = system: Providencia Stuartii; conditions: Providencia stuartii; strain CMX 640; BHI agar, 20-24 hours; read-out: MIC
Method: as §1, §2

[8] = system: Pseudomonas Aeruginosa; conditions: Pseudomonas aeruginosa, BHI agar, 20-24 hours, read-out: MIC
Method: as §1, §2

[9] = system: Staphylococcus Aureus; conditions: Staphylococcus aureus
Method: as §1, §2

[10] = system: Staphylococcus Epidermidis; conditions: Staphylococcus epidermidis, strain 3519; BHI agar, 20-24 hours; read-out: MIC
Method: as §1, §2

[11] = system: Streptococcus Agalactiae; conditions: Streptococcus agalactiae, strain CMX 508; BHI agar, 20-24 hours; read-out: MIC
Method: as §1, §2

[12] = system: Streptococcus Bovis; conditions: Streptococcus equinus, strain A5169; BHI agar, 20-24 hours
Method: as §1, §2

[13] = system: Streptococcus Pyogenes; conditions: Streptococcus pyogenes
Method: as §1, §2

[14] = system: Escherichia Coli; conditions: Escherichia coli, BHI agar, 20-24 hours, read-out: MIC
Method: (§3) Compounds 1 to 8 were evaluated for antibacterial activity by the agar dilution method to determine the degree of in vitro susceptibility of aerobic microorganisms to antimicrobial agents. The test medium was Brain Heart Infusion (BHI) agar. The antibacterial agent was dissolved at a concentration of 2,000 ug/mL. Test plates were then prepared, usually 12 two-fold dilutions. After adding the sample to the plates, 10 mL of cooled BHI agar medium was added to each plate. The organisms were grown overnight in BHI broth (Difco) in a 35°-37° C. incubator.
as §2

[15] = system: Pseudomonas Cepacia; conditions: Burkholderia cepacia; strain 296I; BHI agar, 20-24 hours; read-out: MIC
Method: as §3, §2

CCC1OC(=O)CC(O)C(C)C(OC2OC(C)CC(N(C)C)C2O)C(CC=O)CC(C)C(N(C)C)C=CC2(C)OC2C1C (stereo not drawn) [Example 1, [9R]-9-Deoxo-9-N,N-dimethylamino-rosaramicin]
MIC [1]: 1.56 µg/mL (≈ 2.55 µM) | MIC [2]: 6.2 µg/mL (≈ 10.2 µM) | MIC [3]: 0.39 µg/mL (≈ 0.638 µM) | MIC ([4]; ATCC9795, strain ATCC 9795): 1 µg/mL (≈ 1.64 µM) | MIC ([4]; ATCC10211, strain ATCC 10211): 1 µg/mL (≈ 1.64 µM) | MIC ([4]; ATCC19418, strain ATCC 19418): 1 µg/mL (≈ 1.64 µM) | MIC ([4]; ATCC43095, strain ATCC 43095, read-out: MIC): 0.25 µg/mL (≈ 0.409 µM) | MIC ([4]; strain 503B): 1 µg/mL (≈ 1.64 µM) | MIC ([4]; strain 504): 1 µg/mL (≈ 1.64 µM) | MIC ([4]; strain 519A, read-out: MIC): 0.5 µg/mL (≈ 0.819 µM) | MIC ([4]; strain 566A, read-out: MIC): 2 µg/mL (≈ 3.27 µM) | MIC ([4]; strain 588A): 1 µg/mL (≈ 1.64 µM) | MIC ([4]; strain 632A): 1 µg/mL (≈ 1.64 µM) | MIC ([4]; strain 667A): 1 µg/mL (≈ 1.64 µM) | MIC ([4]; strain 747C): 1 µg/mL (≈ 1.64 µM) | MIC ([4]; strain 751, read-out: MIC): 2 µg/mL (≈ 3.27 µM) | MIC ([4]; strain 1177, read-out: MIC): 0.06 µg/mL (≈ 0.0982 µM) | MIC ([4]; strain 1435, read-out: MIC): 0.5 µg/mL (≈ 0.819 µM) | MIC ([4]; strain DILL AMP R): 1 µg/mL (≈ 1.64 µM) | MIC ([4]; strain SOL AMP R): 1 µg/mL (≈ 1.64 µM) | MIC ([4]; strain SPK AMP R): 1 µg/mL (≈ 1.64 µM) | MIC [5]: 12.5 µg/mL (≈ 20.5 µM) | MIC ([6]; ATCC4698, strain ATCC 4698, BHI agar, 20-24 hours, read-out: MIC): 0.2 µg/mL (≈ 0.327 µM) | MIC ([6]; ATCC9341): 0.1 µg/mL (≈ 0.164 µM) | MIC [7]: > 100 µg/mL | MIC ([8]; strain A5007): > 100 µg/mL | MIC ([8]; strain BMH10): 50 µg/mL (≈ 81.9 µM) | MIC ([8]; strain K799/61): 0.78 µg/mL (≈ 1.28 µM) | MIC ([8]; strain K799/WT): 50 µg/mL (≈ 81.9 µM) | MIC ([9]; ATCC6538P): 0.78 µg/mL (≈ 1.28 µM) | MIC ([9]; NCTC10649, strain NCTC 10649, BHI agar, 20-24 hours, read-out: MIC): 0.78 µg/mL (≈ 1.28 µM) | MIC ([9]; strain 45, BHI agar, 20-24 hours, read-out: MIC): 0.78 µg/mL (≈ 1.28 µM) | MIC ([9]; strain 45 RAR2, BHI agar, 20-24 hours, read-out: MIC): 0.78 µg/mL (≈ 1.28 µM) | MIC ([9]; strain 642A, BHI agar, 20-24 hours, read-out: MIC): 0.78 µg/mL (≈ 1.28 µM) | MIC ([9]; strain A5177, BHI agar, 20-24 hours, read-out: MIC): 1.56 µg/mL (≈ 2.55 µM) | MIC ([9]; strain CMX 553, BHI agar, 20-24 hours, read-out: MIC): 0.78 µg/mL (≈ 1.28 µM) | MIC [10]: 0.78 µg/mL (≈ 1.28 µM) | MIC [11]: 0.1 µg/mL (≈ 0.164 µM) | MIC [12]: 0.05 µg/mL (≈ 0.0819 µM) | MIC [13]: 0.05 µg/mL (≈ 0.0819 µM) | MIC ([13]; strain 930 CONST, BHI agar, 20-24 hours, read-out: MIC): > 100 µg/mL | MIC ([13]; strain 2548 INDUC, BHI agar, 20-24 hours, read-out: MIC): 0.39 µg/mL (≈ 0.638 µM) | MIC ([14]; strain DC-2): 3.1 µg/mL (≈ 5.08 µM) | MIC ([14]; strain H560): 0.78 µg/mL (≈ 1.28 µM) | MIC ([14]; strain JUHL): 6.2 µg/mL (≈ 10.2 µM) | MIC ([14]; strain KNK 437): 6.2 µg/mL (≈ 10.2 µM) | MIC ([14]; strain SS): 0.1 µg/mL (≈ 0.164 µM) | MIC [15]: 100 µg/mL (≈ 164 µM)
